Molecular target: T1, Kv1.3 (mKv1.3) voltage-gated potassium channel (Mus musculus, UniProt P16390)
T1 construct: gene Kcna3
Assay: whole-cell voltage clamp of mKv1.[…] expressed in HEK293T cells
Assay type: cell-based

T1 sequence (P16390 whole entry): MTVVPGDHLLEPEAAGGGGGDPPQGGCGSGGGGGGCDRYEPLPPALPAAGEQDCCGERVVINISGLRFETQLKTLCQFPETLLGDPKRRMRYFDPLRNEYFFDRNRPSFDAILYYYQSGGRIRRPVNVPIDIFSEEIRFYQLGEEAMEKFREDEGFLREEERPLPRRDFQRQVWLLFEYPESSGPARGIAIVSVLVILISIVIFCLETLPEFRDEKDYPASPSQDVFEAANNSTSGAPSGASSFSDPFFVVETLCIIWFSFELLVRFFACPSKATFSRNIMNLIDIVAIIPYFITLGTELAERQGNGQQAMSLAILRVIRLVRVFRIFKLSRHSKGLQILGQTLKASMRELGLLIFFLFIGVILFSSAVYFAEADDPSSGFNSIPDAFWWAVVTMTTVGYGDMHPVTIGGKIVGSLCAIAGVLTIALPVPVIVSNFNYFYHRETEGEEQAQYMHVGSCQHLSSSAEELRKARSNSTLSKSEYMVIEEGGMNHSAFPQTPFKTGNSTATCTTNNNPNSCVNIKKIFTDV

IC50: 6.33 ± 0.49 µM
Compound: COc1cc(OC)c(CCC(=O)c2ccc(O)cc2)c(OC)c1 [LrB, Loureirin B]

Reference: article PMC10165104, “The immunosuppressive effects and mechanisms of loureirin B on collagen-induced arthritis in rats” (Frontiers in Immunology, 2023)
